Experimental data: patent US20250051293A1, “NOVEL OXADIAZOLE DERIVATIVE AND USE THEREOF” (CELROS BIOTECH, priority 2021, published 2025)

Assays:
BV2 cells [1] = assay: NOX inhibition assay in BV2 cells (LPS-induced reactive oxygen species, lucigenin); format: cell-based, mouse; details: BV2 cells pre-treated 30 minutes, LPS 10 ng/ml, 0-10000 nM
Description: BV2 cells, a mouse microglial cell line, were washed with Hank's balanced salt solution (HBSS) and stabilized by incubation at 37° C. in HBSS for 30 minutes. Then, the compounds (compound of Example 1 or compound of Example 2) were treated at various concentrations (0 nM, 1 nM, 10 nM, 100 nM, 1000 nM, and 10000 nM). After 30 minutes, 10 ng/ml of lipopolysaccharide (LPS) and 200 μM of lucigenin were added to the cells. Lucigenin chemiluminescence induced by active oxygen (reactive oxygen species) was detected at 10-second intervals for 15 minutes using a luminometer (GLOMA, Promega).

BV2 cells [2] = assay: Microglia (BV2) migration, transwell; format: cell-based, mouse; details: LPS 1 μg/ml, 24 hours, compound 10 μM
Description: To determine the migration level of BV2 cells, 8 μm-sized transwells (35224, SPL) were used. 1×10^5 BV2 cells were seeded into the insertion transwells, and the lower wells were treated with the compound of Example 2 or Apocynin (NOX inhibitor) along with lipopolysaccharide (LPS, 1 μg/ml) as stimulus. After 24 hours of incubation, BV2 cells that migrated to the bottom of the insertion transwells were stained with crystal violet.

[3] = system: human glioblast cell line U87; assay: Glioblastoma cell growth inhibition, U87; format: cell-based; details: 2 μM, starting 4 days after treatment
Description: (§1) Cell growth experiments were performed to determine the effect of the compounds according to The present disclosure on the growth of brain tumor glioblast cells. Specifically, the rodent brain tumor glioblast cell line 7080 and the human glioblast cell line U87 were treated with the compound of Example 2 according to The present disclosure to determine the cell growth inhibitory effects, and the results are shown in FIG. 18.

[4] = system: rodent brain tumor glioblast cell line 7080; assay: Glioblastoma cell growth inhibition, cell line 7080; format: cell-based; details: all concentrations (0.5 μm, 1 μM, and 2 μM)
Description: as §1

Tg−APP/PS1 animal models = assay: Tg-APPswe/PS1dE9 Alzheimer's animal model; format: in vivo, mice
Description: The Tg−APP/PS1 animal models were used to determine the effect of compounds of Examples according to The present disclosure on Alzheimer's disease. This animal models show amyloid plaque deposition as early as 6.5 months and severe cognitive impairment at 6 to 8 months. The Tg−APP/PS1 animal models were administered with vehicle or the Example compound (i.e., Example 2 was used) at 30 mg/kg or 10 mg/kg every other day from 6.5 to 8 months. All behavioral testing occurred between 7.5 and 8 months, and brain tissues for biopsy were obtained by perfusion after behavioral testing. To confirm amyloid beta plaques, the brain tissues obtained in the above part (1)_1) were incubated in 1% Thioflavin-S solution for 8 to 20 minutes and washed with ethanol and distilled water. The stained tissues were sectioned and the number of plaques or stained areas were quantified. To confirm the changes in astrocytes and microglia by administration of oxadiazole derivative compounds, immunostaining was performed using GFAP antibody, a marker for astrocytes, and Iba1 antibody, a marker for microglia. The novel object recognition (NOR) and novel location recognition (NLR) tests are behavioral assessments that evaluate memory based on the disparity in search time between a novel object or an object relocated to a new position compared to a familiar object. Each experimental animal was placed in a square box with two identical objects and allowed to familiarize for 10 minutes (familiarization #1). Ten minutes after the first familiarization was completed, the objects used in the first familiarization were returned to their original position and subjected to a second familiarization (familiarization #2). After 2 hours, only one of the objects used in familiarization was replaced with a novel object and placed in the same position and the exploration time of the familiar and novel objects (2 h NOR) was determined. After 15 minutes, the familiar object was repositioned, and the exploration time of both objects was checked (NLR). After 22 hours (24 hours after familiarization), the novel object and the familiar object were placed and the exploration time was determined (24 h NOR). water maze test is frequently used to assess memory functions such as memory formation, consolidation, and retrieval effects by assessing the time it takes for an experimental animal to find a platform beneath the water surface, relying on environmental cues. Therefore, the treatment effect on Alzheimer's disease was confirmed using the model used in the water maze test above. The passive avoidance test is a fear-motivated test mainly used to evaluate short-term or long-term memory in experimental animals. The passive avoidance test evaluates fear memory by utilizing the innate tendency of experimental animals to prefer dark areas and avoid bright areas, delivering an electric shock to the paw upon entry into a dark area, and measuring the time it takes for the animal to re-enter the dark area upon re-exposure to the same environment.

[5] = parietal cortex, piriform cortex, and hippocampus

Compound	production of reactive oxygen species (BV2 cells [1])	LPS-induced increase in number of migrated BV2 cells (BV2 cells [2])	cell growth of human glioblast cell line U87 [3]	glioma cell growth of glioblast cell line 7080 [4]	exploration time for novel objects than familiar objects (2 h NOR) (Tg−APP/PS1 animal models; 30 mg/kg)	exploration time for novel objects than familiar objects (24 h NOR) (Tg−APP/PS1 animal models; 30 mg/kg)	exploration time for objects located in a novel location (NLR) (Tg−APP/PS1 animal models; 30 mg/kg)	amyloid plaque deposition (Thioflavin-S staining) (Tg−APP/PS1 animal models; 30 mg/kg or 10 mg/kg every other day from 6.5 to 8 months)	water maze test, time required to locate platform (Tg−APP/PS1 animal models; five consecutive days of training)	activation of astrocytes (GFAP immunostaining) (Tg−APP/PS1 animal models; [5])	activation of microglia (Iba1 immunostaining) (Tg−APP/PS1 animal models; [5])	passive avoidance test, time to enter the dark area (Tg−APP/PS1 animal models; post-shock, 24 to 120 hours)
O=C(Nc1nnc(-c2cccc(Cl)c2)o1)c1cc(F)cc(C(F)(F)F)c1 [Example 1, N-(5-(3-chlorophenyl)-1,3,4-oxadiazol-2-yl)-3-fluoro-5-(trifluoromethyl)benzamide]	significantly reduced	–	–	–	–	–	–	–	–	–	–	–
O=C(Nc1nnc(-c2ccccc2)o1)c1ccc(F)c(C(F)(F)F)c1 [Example 2, 4-fluoro-N-(5-phenyl-1,3,4-oxadiazol-2-yl)-3-(trifluoromethyl)benzamide]	significantly reduced	offset	cell growth inhibition was observed	strongly inhibited	significantly increase	remarkable increase	significant increase	highly significant ameliorative effect	memory acquisition ability equivalent to wild-type mice	effectively reduced	effectively reduced	fear memory retention comparable to that of wild-type animals
